Active and inactive are the calls of the source. No cut-off for these calls is given here.
Key:
Rattus norvegicus [1] = test: Blood pressure lowering activity in spontaneously hypertensive rats (SHR) after 6 hours of administration (iv) of dose of 4.0 mg/kg; Did not last more than 1/2 hr […]; assay type: functional, organism-based; parameters: dose 4 mg/kg
Rattus norvegicus [2] = test: Blood pressure lowering activity in spontaneously hypertensive rats (SHR) after 1 hour of administration (iv) of dose of 4.0 mg/kg; Did not last more than 1/2 hr […]; assay type: functional, organism-based; parameters: dose 4 mg/kg
[3] = target: T1, Adrenergic receptor alpha-1 (Rattus norvegicus, UniProt P15823+P23944+P43140); test: Binding affinity against alpha-1 adrenergic receptor by measuring displacement of [3H]prazosin from rat brain cortex membranes (in vitro).; assay type: cell membranes, Membrane
T1 sequence (P15823 whole entry): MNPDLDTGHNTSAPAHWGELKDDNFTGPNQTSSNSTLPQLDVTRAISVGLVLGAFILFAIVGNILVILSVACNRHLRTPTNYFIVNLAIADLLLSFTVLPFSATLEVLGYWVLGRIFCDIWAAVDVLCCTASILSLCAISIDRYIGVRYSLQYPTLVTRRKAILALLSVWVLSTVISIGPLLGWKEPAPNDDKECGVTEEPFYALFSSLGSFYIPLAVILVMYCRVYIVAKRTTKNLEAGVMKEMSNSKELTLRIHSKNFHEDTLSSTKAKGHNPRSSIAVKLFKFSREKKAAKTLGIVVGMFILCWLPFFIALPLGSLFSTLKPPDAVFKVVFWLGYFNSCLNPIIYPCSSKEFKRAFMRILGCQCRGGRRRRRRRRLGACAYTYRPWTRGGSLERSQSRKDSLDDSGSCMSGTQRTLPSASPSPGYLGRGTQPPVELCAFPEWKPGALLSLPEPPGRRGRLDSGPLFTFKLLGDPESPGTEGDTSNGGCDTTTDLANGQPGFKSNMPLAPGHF
T1 sequence (P23944 whole entry): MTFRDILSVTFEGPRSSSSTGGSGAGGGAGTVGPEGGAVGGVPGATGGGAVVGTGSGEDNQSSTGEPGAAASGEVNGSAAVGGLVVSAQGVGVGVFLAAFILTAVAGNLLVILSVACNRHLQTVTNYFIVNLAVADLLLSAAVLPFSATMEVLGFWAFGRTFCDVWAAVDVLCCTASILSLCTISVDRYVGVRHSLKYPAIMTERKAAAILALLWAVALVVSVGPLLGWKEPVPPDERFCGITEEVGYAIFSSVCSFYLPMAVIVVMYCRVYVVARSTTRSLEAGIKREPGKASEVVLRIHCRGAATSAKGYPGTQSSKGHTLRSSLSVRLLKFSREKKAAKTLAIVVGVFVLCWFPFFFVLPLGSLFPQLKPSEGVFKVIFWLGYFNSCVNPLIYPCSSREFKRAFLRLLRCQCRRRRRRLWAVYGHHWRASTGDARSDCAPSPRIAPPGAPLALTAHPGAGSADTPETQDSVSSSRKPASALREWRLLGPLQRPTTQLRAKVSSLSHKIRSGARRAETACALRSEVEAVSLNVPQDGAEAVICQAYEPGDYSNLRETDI
T1 sequence (P43140 whole entry): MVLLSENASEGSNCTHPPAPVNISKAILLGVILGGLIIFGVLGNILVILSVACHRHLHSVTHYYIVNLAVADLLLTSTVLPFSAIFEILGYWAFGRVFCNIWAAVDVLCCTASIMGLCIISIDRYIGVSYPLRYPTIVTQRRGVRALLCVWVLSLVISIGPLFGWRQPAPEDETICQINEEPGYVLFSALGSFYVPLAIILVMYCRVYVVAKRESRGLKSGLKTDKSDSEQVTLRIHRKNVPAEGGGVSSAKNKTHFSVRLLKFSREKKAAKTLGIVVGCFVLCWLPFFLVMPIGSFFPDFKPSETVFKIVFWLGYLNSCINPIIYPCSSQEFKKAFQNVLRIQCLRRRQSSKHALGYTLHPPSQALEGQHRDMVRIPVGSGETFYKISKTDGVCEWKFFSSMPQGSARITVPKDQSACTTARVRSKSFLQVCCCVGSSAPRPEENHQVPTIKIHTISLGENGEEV

[4] = target: T2, Adrenergic receptor alpha-2 (Rattus norvegicus, UniProt P22086+P19328+P22909); test: Binding affinity against alpha-2 adrenergic receptor by measuring displacement of [3H]clonidine from rat brain cortex membranes (in vitro).; assay type: cell membranes, Membrane
T2 sequence (P22086 whole entry): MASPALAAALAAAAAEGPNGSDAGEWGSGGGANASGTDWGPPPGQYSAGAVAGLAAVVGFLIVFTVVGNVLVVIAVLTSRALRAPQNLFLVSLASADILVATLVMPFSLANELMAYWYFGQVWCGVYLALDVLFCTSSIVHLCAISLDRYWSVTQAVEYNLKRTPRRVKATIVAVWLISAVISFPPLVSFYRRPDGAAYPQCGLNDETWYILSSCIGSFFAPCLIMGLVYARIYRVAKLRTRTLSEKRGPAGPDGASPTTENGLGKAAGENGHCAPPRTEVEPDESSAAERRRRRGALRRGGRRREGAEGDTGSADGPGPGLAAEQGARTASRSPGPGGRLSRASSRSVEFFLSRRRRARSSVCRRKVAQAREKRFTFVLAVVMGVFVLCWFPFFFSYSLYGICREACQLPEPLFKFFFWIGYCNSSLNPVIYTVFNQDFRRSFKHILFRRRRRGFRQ
T2 sequence (P19328 whole entry): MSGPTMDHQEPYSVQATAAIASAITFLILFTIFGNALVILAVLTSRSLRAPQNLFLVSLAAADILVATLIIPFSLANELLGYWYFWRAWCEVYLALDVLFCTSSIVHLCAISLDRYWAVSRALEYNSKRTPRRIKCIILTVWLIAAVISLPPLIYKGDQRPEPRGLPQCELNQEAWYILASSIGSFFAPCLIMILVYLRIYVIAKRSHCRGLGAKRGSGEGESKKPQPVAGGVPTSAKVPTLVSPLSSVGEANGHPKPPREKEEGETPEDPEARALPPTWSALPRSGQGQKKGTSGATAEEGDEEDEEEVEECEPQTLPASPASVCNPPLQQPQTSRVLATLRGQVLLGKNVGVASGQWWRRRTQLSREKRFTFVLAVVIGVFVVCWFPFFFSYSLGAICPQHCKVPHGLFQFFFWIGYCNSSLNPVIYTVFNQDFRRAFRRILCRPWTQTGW
T2 sequence (P22909 whole entry): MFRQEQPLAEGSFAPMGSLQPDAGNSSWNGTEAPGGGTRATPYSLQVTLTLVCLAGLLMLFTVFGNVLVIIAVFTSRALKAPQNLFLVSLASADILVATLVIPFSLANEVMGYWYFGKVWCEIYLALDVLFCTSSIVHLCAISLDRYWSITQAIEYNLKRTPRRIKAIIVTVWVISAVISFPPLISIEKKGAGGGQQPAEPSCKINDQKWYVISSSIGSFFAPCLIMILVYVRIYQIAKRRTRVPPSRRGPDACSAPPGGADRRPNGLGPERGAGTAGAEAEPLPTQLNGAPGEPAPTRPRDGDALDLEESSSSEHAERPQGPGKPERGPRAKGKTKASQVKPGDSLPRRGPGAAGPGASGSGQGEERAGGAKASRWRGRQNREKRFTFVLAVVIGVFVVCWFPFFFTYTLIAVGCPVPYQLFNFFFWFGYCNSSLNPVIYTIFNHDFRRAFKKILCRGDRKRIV

Rattus norvegicus [5] = test: Blood pressure lowering activity in spontaneously hypertensive rats (SHR) after 6 hours of administration (iv) of dose of 0.5 mg/kg […]; assay type: functional
Rattus norvegicus [6] = test: Blood pressure lowering activity in spontaneously hypertensive rats (SHR) after 1 hour of administration (iv) of dose of 0.5 mg/kg […]; assay type: functional
Rattus norvegicus [7] = test: Blood pressure lowering activity in spontaneously hypertensive rats (SHR) after 6 hours of administration (iv) of dose of 1.0 mg/kg; Did not last more than 1/2 hr […]; assay type: functional, organism-based; parameters: dose 1 mg/kg
Rattus norvegicus [8] = test: Blood pressure lowering activity in spontaneously hypertensive rats (SHR) after 1 hour of administration (iv) of dose of 1.0 mg/kg; Did not last more than 1/2 hr […]; assay type: functional, organism-based; parameters: dose 1 mg/kg
Rattus norvegicus [9] = test: Blood pressure lowering activity in spontaneously hypertensive rats (SHR) after 6 hours of administration (iv) of dose of 0.5 mg/kg; Did not last more than 1/2 hr […]; assay type: functional, organism-based; parameters: dose 0.5 mg/kg
Rattus norvegicus [10] = test: Blood pressure lowering activity in spontaneously hypertensive rats (SHR) after 1 hour of administration (iv) of dose of 4.0 mg/kg […]; assay type: functional
Rattus norvegicus [11] = test: Blood pressure lowering activity in spontaneously hypertensive rats (SHR) after 6 hours of administration (iv) of dose of 4.0 mg/kg […]; assay type: functional

Ki [3] | Ki [4] | SMILES | MBP (Rattus norvegicus [1]) | MBP (Rattus norvegicus [2]) | also measured
> 100 nM |  | COC1=Nc2ccccc2C2=NCC(CN3CCN(c4cccc(OC)c4)CC3)N12 (configuration not stated) | inactive | inactive | 
0.37 nM | 1740 nM | COc1ccccc1N1CCN(CC2CN3C(=O)N(C)c4ccccc4C3=N2)CC1 (configuration not stated) |  |  | MBP (Rattus norvegicus [5]): -28.4 mmHg; MBP (Rattus norvegicus [6]): -38.4 mmHg
19.4 nM |  | COc1cccc(N2CCN(CC3CN=C4c5ccccc5N(C)C(=O)N43)CC2)c1 (configuration not stated) | inactive | inactive | 
> 10 nM |  | CSC1=Nc2ccccc2C2=NCC(CN3CCN(c4ccccc4)CC3)N12 (configuration not stated) |  |  | MBP (Rattus norvegicus [7]): inactive; MBP (Rattus norvegicus [8]): inactive
5.76 nM | 302 nM | COc1cccc(N2CCN(CC3CN=C4c5ccccc5NC(=O)N43)CC2)c1 (configuration not stated) | inactive | inactive | 
0.11 nM | 116 nM | COC1=Nc2ccccc2C2=NCC(CN3CCN(c4ccccc4Cl)CC3)N12 (configuration not stated) |  |  | MBP (Rattus norvegicus [9]): inactive; MBP (Rattus norvegicus [6]): -28.3 mmHg
48.8 nM | 8356 nM | COc1cccc(N2CCN(CC3CN=C4c5ccccc5N=C(SC)N43)CC2)c1 (configuration not stated) |  |  | MBP (Rattus norvegicus [7]): inactive; MBP (Rattus norvegicus [8]): inactive
14.4 nM | 391 nM | O=C1Nc2ccccc2C2=NC(CN3CCN(c4ccc(F)cc4)CC3)CN12 (configuration not stated) |  | inactive | 
0.34 nM | 223 nM | CSC1=Nc2ccccc2C2=NCC(CN3CCN(c4ccccc4Cl)CC3)N12 (configuration not stated) |  |  | MBP (Rattus norvegicus [7]): inactive; MBP (Rattus norvegicus [8]): inactive
0.07 nM | 472 nM | COC1=Nc2ccccc2C2=NCC(CN3CCN(c4ccccc4OC)CC3)N12 (configuration not stated) |  |  | MBP (Rattus norvegicus [9]): inactive; MBP (Rattus norvegicus [6]): -17.2 mmHg
586 nM |  | O=C1Nc2ccccc2C2=NC(CNC3CCN(Cc4ccccc4)CC3)CN12 (configuration not stated) | inactive | inactive | 
95.9 nM |  | O=C1Nc2ccccc2C2=NC(CN3CCN(c4ccccn4)CC3)CN12 (configuration not stated) | inactive | inactive | 
251.2 nM |  | O=C1Nc2ccccc2C2=NC(CN3CCC4(CCCCC4)CC3)CN12 (configuration not stated) | inactive | inactive | 
30 nM | 1694 nM | COc1cc2c(cc1OC)C1=NC(CN3CCN(c4ccccc4)CC3)CN1C(=O)N2 (configuration not stated) |  |  | MBP (Rattus norvegicus [10]): -38.2 mmHg; MBP (Rattus norvegicus [11]): -12.6 mmHg
 |  | COc1cccc(N2CCN(CC3CN4C(=O)Nc5ccccc5C4=N3)CC2)c1 (configuration not stated) |  |  | MBP (Rattus norvegicus [10]): -20.3 mmHg; MBP (Rattus norvegicus [11]): -8.5 mmHg
35.8 nM | 5011 nM | O=C1Nc2ccccc2C2=NC(CN3CCC(Cc4ccccc4)CC3)CN12 (configuration not stated) | inactive |  | MBP (Rattus norvegicus [10]): -30.6 mmHg
> 100 nM |  | COc1ccc(N2CCN(CC3CN=C4c5ccccc5N=C(SC)N43)CC2)cc1 (configuration not stated) |  |  | MBP (Rattus norvegicus [7]): inactive; MBP (Rattus norvegicus [8]): inactive
> 100 nM |  | COC1=Nc2ccccc2C2=NCC(CN3CCN(c4ccc(OC)cc4)CC3)N12 (configuration not stated) | inactive | inactive | 
1.7 nM | 962 nM | O=C1Nc2ccccc2C2=NCC(CN3CCN(c4ccccc4)CC3)N12 (configuration not stated) |  |  | 
0.68 nM | 473 nM | CN1C(=O)N2CC(CN3CCN(c4ccccc4Cl)CC3)N=C2c2ccccc21 (configuration not stated) |  |  | MBP (Rattus norvegicus [5]): -22.5 mmHg; MBP (Rattus norvegicus [6]): -27.5 mmHg
1.35 nM | 952 nM | COC1=Nc2ccccc2C2=NCC(CN3CCN(c4ccccc4)CC3)N12 (configuration not stated) |  |  | MBP (Rattus norvegicus [7]): inactive; MBP (Rattus norvegicus [8]): inactive
0.36 nM | 1419 nM | COc1ccccc1N1CCN(CC2CN=C3c4ccccc4N(C)C(=O)N32)CC1 (configuration not stated) |  |  | MBP (Rattus norvegicus [5]): -28.3 mmHg; MBP (Rattus norvegicus [6]): -32.5 mmHg
158 nM |  | SC1=Nc2ccccc2C2=NC(CN3CCN(c4ccccc4)CC3)CN12 (configuration not stated) |  |  | MBP (Rattus norvegicus [10]): -33.9 mmHg; MBP (Rattus norvegicus [11]): -22.5 mmHg
0.58 nM | 387 nM | O=C1Nc2ccccc2C2=NCC(CN3CCN(c4ccccc4Cl)CC3)N12 (configuration not stated) |  |  | MBP (Rattus norvegicus [5]): -15 mmHg; MBP (Rattus norvegicus [6]): -14.6 mmHg
> 50 nM |  | COc1ccc(N2CCN(CC3CN=C4c5ccccc5NC(=O)N43)CC2)cc1 (configuration not stated) | inactive | inactive | 
 |  | O=C(c1ccc(F)cc1)C1CCN(CC2CN3C(=O)Nc4ccccc4C3=N2)CC1 (configuration not stated) |  |  | MBP (Rattus norvegicus [10]): -30 mmHg; MBP (Rattus norvegicus [11]): -13.8 mmHg

Reference: ChEMBL document CHEMBL1126751, “Studies on quinazolines. 5. 2,3-dihydroimidazo[1,2-c]quinazoline derivatives: a novel class of potent and selective alpha 1-adrenoceptor antagonists and antihypertensive agents” (J Med Chem, 1993)
